Where only a bound is given, the exact number is not on record here.

In the assay the target is full-length human PIKFYVE (N-terminal GST-fusion) (Homo sapiens (Human), UniProt Q9Y2I7, L932S/Q1183K/Q995L/S1033A/S696N/T998S). Put plainly: PIKfyve biochemical assay (ADP-Glo Kinase assay, Carna Biosciences). As to conditions: ADP-Glo, full-length human GST-PIKFYVE, 10 μM to 3 nM; read-out: hPIKfyve IC50.
Sequence of full-length human PIKFYVE (N-terminal GST-fusion) (Q9Y2I7 whole entry S696N/L932S/Q995L/T998S/S1033A/Q1183K, the tested form may be a part): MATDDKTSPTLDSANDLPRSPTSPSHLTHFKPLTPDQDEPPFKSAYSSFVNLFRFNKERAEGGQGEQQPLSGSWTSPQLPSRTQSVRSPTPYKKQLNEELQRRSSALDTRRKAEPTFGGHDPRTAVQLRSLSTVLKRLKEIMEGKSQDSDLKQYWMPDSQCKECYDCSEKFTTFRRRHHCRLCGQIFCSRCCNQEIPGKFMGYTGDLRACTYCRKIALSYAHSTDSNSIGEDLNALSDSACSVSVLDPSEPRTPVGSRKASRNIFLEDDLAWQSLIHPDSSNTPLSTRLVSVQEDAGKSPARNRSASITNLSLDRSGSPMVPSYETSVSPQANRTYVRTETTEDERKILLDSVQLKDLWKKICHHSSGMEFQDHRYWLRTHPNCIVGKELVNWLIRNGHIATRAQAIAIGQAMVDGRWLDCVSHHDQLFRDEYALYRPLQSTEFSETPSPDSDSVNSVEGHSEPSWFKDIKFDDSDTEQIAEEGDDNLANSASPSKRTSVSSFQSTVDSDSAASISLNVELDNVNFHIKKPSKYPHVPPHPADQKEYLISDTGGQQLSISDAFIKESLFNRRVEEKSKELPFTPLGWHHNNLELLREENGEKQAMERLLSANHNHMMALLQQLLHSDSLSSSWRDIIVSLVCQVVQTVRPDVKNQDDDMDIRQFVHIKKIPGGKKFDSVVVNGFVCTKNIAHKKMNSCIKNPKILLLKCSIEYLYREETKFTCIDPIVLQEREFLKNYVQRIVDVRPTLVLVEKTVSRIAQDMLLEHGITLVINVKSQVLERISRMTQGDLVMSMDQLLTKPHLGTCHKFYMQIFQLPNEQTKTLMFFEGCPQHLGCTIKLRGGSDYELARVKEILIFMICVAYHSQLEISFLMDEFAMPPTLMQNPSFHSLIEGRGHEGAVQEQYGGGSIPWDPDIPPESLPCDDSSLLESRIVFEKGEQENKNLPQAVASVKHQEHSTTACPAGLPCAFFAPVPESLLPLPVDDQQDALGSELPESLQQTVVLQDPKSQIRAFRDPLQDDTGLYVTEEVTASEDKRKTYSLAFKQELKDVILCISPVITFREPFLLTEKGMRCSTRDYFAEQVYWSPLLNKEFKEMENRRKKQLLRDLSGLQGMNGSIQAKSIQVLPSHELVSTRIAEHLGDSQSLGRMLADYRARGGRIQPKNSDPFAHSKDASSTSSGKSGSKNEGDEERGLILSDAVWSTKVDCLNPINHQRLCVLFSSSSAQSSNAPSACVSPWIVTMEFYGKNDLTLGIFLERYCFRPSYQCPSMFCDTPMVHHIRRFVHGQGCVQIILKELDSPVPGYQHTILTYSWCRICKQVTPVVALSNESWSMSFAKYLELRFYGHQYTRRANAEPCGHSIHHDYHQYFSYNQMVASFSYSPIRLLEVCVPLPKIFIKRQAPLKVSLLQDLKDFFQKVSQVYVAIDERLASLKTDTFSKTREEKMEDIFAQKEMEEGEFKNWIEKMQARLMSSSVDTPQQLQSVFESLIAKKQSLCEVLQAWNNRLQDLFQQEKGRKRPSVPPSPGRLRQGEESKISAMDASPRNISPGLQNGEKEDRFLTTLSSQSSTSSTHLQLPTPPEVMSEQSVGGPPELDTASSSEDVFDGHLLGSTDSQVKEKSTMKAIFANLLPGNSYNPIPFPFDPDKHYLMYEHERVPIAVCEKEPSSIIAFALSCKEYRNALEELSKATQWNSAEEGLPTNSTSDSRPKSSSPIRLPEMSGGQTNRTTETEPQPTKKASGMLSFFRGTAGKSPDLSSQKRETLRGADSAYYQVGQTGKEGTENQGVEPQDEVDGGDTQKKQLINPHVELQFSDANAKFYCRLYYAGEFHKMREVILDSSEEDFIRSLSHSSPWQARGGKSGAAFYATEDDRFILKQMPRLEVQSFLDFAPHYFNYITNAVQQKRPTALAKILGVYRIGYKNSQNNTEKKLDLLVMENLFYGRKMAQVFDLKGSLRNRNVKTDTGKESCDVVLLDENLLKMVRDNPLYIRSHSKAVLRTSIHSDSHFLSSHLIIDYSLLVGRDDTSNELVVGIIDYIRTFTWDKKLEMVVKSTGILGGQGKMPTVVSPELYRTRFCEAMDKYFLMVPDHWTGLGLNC
Excerpt: (§1) PIKfyve Biochemical Assay. The biochemical PIKfyve inhibition assays were run by Carna Biosciences according to proprietary methodology based on the Promega ADP-Glo™ Kinase assay. A full-length human PIKFYVE [1-2098(end) amino acids and S696N, L932S, Q995L, T998S, S1033A and Q1183K of the protein having the sequence set forth in NCBI Reference Sequence No. NP_055855.2] was expressed as N-terminal GST-fusion protein (265 kDa) using baculovirus expression system. GST-PIKFYVE was purified by using glutathione sepharose chromatography and used in an ADP-Glo™ Kinase assay (Promega). Reactions were set up by adding the test compound solution, substrate solution, ATP solution and kinase solution, each at 4× final concentrations. Reactions were prepared with assay buffer (50 mM MOPS, 1 mM DTT, pH7.2), mixed, and incubated in black 384 well polystyrene plates for 1 hour at room temperature. ADP-Glo™ reagent was then added for 40 minutes, followed by kinase detection reagent for an additional 40 minutes. The kinase activity was evaluated by detecting relative light units on a luminescence plate reader. Samples were run in duplicate from 10 μM to 3 nM. […] IC50 values were calculated from concentration vs % inhibition curves by fitting to a four-parameter logistic curve.
as §1, with “The” for “PIKfyve Biochemical Assay. The”, “accession number” for “the protein having the sequence set forth in NCBI Reference Sequence No.”, “curve. […]” for “curve.”
By IC50 is commonly meant the midpoint of a concentration-inhibition curve. With `Cc1nc(N2CCOCC2)nc2c1CCN2c1ccccc1` [Compound 45, 4-(4-methyl-7-phenyl-6,7-dihydro-5H-pyrrolo[2,3-d]pyrimidin-2-yl)morpholine], the half-maximal inhibitory concentration (IC50) lay within 100 to 1000 nM.

In the case of `CC(C)(O)Cc1nc(N2CCOCC2)nc2c1CCN2c1ccccc1` [Compound 46, 2-methyl-1-(2-morpholino-7-phenyl-6,7-dihydro-5H-pyrrolo[2,3-d]pyrimidin-4-yl)propan-2-ol], the IC50 was 10 to 100 nM.

On to `N#Cc1nc(N2CCOCC2)nc2c1CCN2c1ccccc1` [Compound 47, 2-morpholino-7-phenyl-6,7-dihydro-5H-pyrrolo[2,3-d]pyrimidine-4-carbonitrile], for which the IC50 was 100 to 1000 nM.

For `COc1nc(N2CCOCC2)nc2c1CCN2c1ccccc1` [Compound 48, 4-(4-methoxy-7-phenyl-6,7-dihydro-5H-pyrrolo[2,3-d]pyrimidin-2-yl)morpholine], the IC50 fell in the range of 10 to 100 nM.

Regarding `c1ccc(N2CCc3c(Oc4ccccn4)nc(N4CCOCC4)nc32)cc1` [Compound 49, 4-(7-phenyl-4-(pyridin-2-yloxy)-6,7-dihydro-5H-pyrrolo[2,3-d]pyrimidin-2-yl)morpholine], the IC50 was 10 to 100 nM.

For `O=c1ccccn1-c1nc(N2CCOCC2)nc2c1CCN2c1ccccc1` [Compound 50, 1-(2-morpholino-7-phenyl-6,7-dihydro-5H-pyrrolo[2,3-d]pyrimidin-4-yl)pyridin-2(1H)-one], the IC50 was in the range of 100 to 1000 nM.

Regarding `c1ccc(Oc2nc(N3CCOCC3)nc3c2CCN3c2cccnc2)nc1` [Compound 51, 4-(4-(pyridin-2-yloxy)-7-(pyridin-3-yl)-6,7-dihydro-5H-pyrrolo[2,3-d]pyrimidin-2-yl)morpholine], the IC50 lay within 100 to 1000 nM.

Consider `O=c1ccccn1-c1nc(N2CCOCC2)nc2c1CCN2c1cccnc1` [Compound 52, 1-(2-morpholino-7-(pyridin-3-yl)-6,7-dihydro-5H-pyrrolo[2,3-d]pyrimidin-4-yl)pyridin-2(1H)-one], for which the IC50 was 1000 to 10000 nM.

Consider `c1ccc(N2CCc3c(Oc4cccnc4)nc(N4CCOCC4)nc32)cc1` [Compound 53, 4-(7-phenyl-4-(pyridin-3-yloxy)-6,7-dihydro-5H-pyrrolo[2,3-d]pyrimidin-2-yl)morpholine], for which the IC50 was 10 to 100 nM.

Turning to `c1ccc(N2CCc3c(Oc4ccncc4)nc(N4CCOCC4)nc32)cc1` [Compound 54, 4-(7-phenyl-4-(pyridin-4-yloxy)-6,7-dihydro-5H-pyrrolo[2,3-d]pyrimidin-2-yl)morpholine], the IC50 fell in the range of 10 to 100 nM.

On to `c1cncc(Oc2nc(N3CCOCC3)nc3c2CCN3c2cccnc2)c1` [Compound 55, 4-(7-(pyridin-3-yl)-4-(pyridin-3-yloxy)-6,7-dihydro-5H-pyrrolo[2,3-d]pyrimidin-2-yl)morpholine], for which the IC50 fell in the range of 100 to 1000 nM.

For `Fc1cccc(N2CCc3c(Oc4cccnc4)nc(N4CCOCC4)nc32)c1` [Compound 56, 4-(7-(3-fluorophenyl)-4-(pyridin-3-yloxy)-6,7-dihydro-5H-pyrrolo[2,3-d]pyrimidin-2-yl)morpholine], the IC50 lay within 10 to 100 nM.

As to `c1ccc(Oc2nc(N3CCOCC3)nc3c2CCN3c2cccnc2)nc1` [Compound 58], the half-maximal inhibitory concentration (IC50) is 100 to 1000 nM.

As for `c1ccc(N2CCc3c(COc4cccnc4)nc(N4CCOCC4)nc32)cc1` [Compound 59, 4-(7-phenyl-4-((pyridin-3-yloxy)methyl)-6,7-dihydro-6H-pyrrolo[2,3-d]pyrimidin-2-yl)morpholine], the IC50 lay within 100 to 1000 nM.

As to `Oc1ccc[n+](Cc2nc(N3CCOCC3)nc3c2CCN3c2ccccc2)c1` [Compound 60, 5-hydroxy-1-((2-morpholino-7-phenyl-6,7-dihydro-5H-pyrrolo[2,3-d]pyrimidin-4-yl)methyl)pyridin-1-ium-3-ylium], the IC50 was 100 to 1000 nM.

For the compound `c1ccc(N2CCc3c(COC4CCOCC4)nc(N4CCOCC4)nc32)cc1` [Compound 61, 4-(7-phenyl-4-(((tetrahydro-2H-pyran-4-yl)oxy)methyl)-6,7-dihydro-5H-pyrrolo[2,3-d]pyrimidin-2-yl)morpholine], the concentration for half-maximal inhibition (IC50) lay in the range of 100 to 1000 nM.

For the compound `c1ccc(N2CCc3c(COCc4ccccn4)nc(N4CCOCC4)nc32)cc1` [Compound 62, 4-(7-phenyl-4-((pyridin-2-ylmethoxy)methyl)-6,7-dihydro-5H-pyrrolo[2,3-d]pyrimidin-2-yl)morpholine], the IC50 lay within 10 to 100 nM.

For `c1cncc(N2CCc3c(COC4CCNC4)nc(N4CCOCC4)nc32)c1` (centres unmarked) [Compound 64, 4-(7-(pyridin-3-yl)-4-((pyrrolidin-3-yloxy)methyl)-6,7-dihydro-5H-pyrrolo[2,3-d]pyrimidin-2-yl)morpholine], the IC50 was in the range of 1000 to 10000 nM.

As to `CN1CCC(OCc2nc(N3CCOCC3)nc3c2CCN3c2cccnc2)C1` (centres unmarked) [Compound 66, 4-(4-((1-methylpyrrolidin-3-yloxy)methyl)-7-(pyridin-3-yl)-6,7-dihydro-5H-pyrrolo[2,3-d]pyrimidin-2-yl)morpholine], the half-maximal inhibitory concentration (IC50) lay in the range of 1000 to 10000 nM.

As to `c1ccc(-c2cncc(N3CCc4c(Oc5cccnc5)nc(N5CCOCC5)nc43)c2)cc1` [Compound 67, 4-(7-(5-phenylpyridin-3-yl)-4-(pyridin-3-yloxy)-6,7-dihydro-5H-pyrrolo[2,3-d]pyrimidin-2-yl)morpholine], the IC50 was in the range of 10 to 100 nM.

For `c1ccc(-n2ncc(N3CCc4c(Oc5cccnc5)nc(N5CCOCC5)nc43)n2)cc1` [Compound 68, 4-(7-(2-phenyl-2H-1,2,3-triazol-4-yl)-4-(pyridin-3-yloxy)-6,7-dihydro-5H-pyrrolo[2,3-d]pyrimidin-2-yl)morpholine], the 50% inhibitory concentration (IC50) was 1000 to 10000 nM.

Consider `c1ccc(-n2cc(N3CCc4c(Oc5cccnc5)nc(N5CCOCC5)nc43)nn2)cc1` [Compound 69, 4-(7-(1-phenyl-1H-1,2,3-triazol-4-yl)-4-(pyridin-3-yloxy)-6,7-dihydro-5H-pyrrolo[2,3-d]pyrimidin-2-yl)morpholine], for which the IC50 fell in the range of 10 to 100 nM.

Regarding `c1ccc(-n2ccc(N3CCc4c(Oc5cccnc5)nc(N5CCOCC5)nc43)n2)cc1` [Compound 70, 4-(7-(1-phenyl-1H-pyrazol-3-yl)-4-(pyridin-3-yloxy)-6,7-dihydro-5H-pyrrolo[2,3-d]pyrimidin-2-yl)morpholine], the IC50 is 1000 to 10000 nM.

With `c1ccc(-n2cc(N3CCc4c(Oc5cccnc5)nc(N5CCOCC5)nc43)cn2)cc1` [Compound 71, 4-(7-(1-phenyl-1H-pyrazol-4-yl)-4-(pyridin-3-yloxy)-6,7-dihydro-5H-pyrrolo[2,3-d]pyrimidin-2-yl)morpholine], the IC50 is 10 to 100 nM.

As to `O=C(c1ccccc1)N1CCc2c(Oc3cccnc3)nc(N3CCOCC3)nc21` [Compound 72, (2-morpholino-4-(pyridin-3-yloxy)-6H-pyrrolo[2,3-d]pyrimidin-7(6H)-yl)(phenyl)methanone], the IC50 lay in the range of 1000 to 10000 nM.

In the case of `O=C(Cc1ccccc1)N1CCc2c(-c3ccncc3)nc(N3CCOCC3)nc21` [Compound 73, 1-(2-morpholino-4-(pyridin-4-yl)-5,6-dihydro-7H-pyrrolo[2,3-d]pyrimidin-7-yl)-2-phenylethan-1-one], the IC50 was 10 to 100 nM.

For `c1ccc(-c2nccc(N3CCc4c(Oc5cccnc5)nc(N5CCOCC5)nc43)n2)cc1` [Compound 74, 4-(7-(2-phenylpyrimidin-4-yl)-4-(pyridin-3-yloxy)-6,7-dihydro-5H-pyrrolo[2,3-d]pyrimidin-2-yl)morpholine], the IC50 was 1000 to 10000 nM.

Regarding `c1ccc(-c2cncc(Oc3nc(N4CCOCC4)nc4c3CCN4c3cccnc3)c2)cc1` [Compound 75, 4-(4-((5-phenylpyridin-3-yl)oxy)-7-(pyridin-3-yl)-6,7-dihydro-5H-pyrrolo[2,3-d]pyrimidin-2-yl)morpholine], the IC50 fell in the range of 10 to 100 nM.

With `c1ccc(N2CCc3c(NC4COC4)nc(N4CCOCC4)nc32)cc1` [Compound 76, 2-morpholino-N-(oxetan-3-yl)-7-phenyl-6,7-dihydro-5H-pyrrolo[2,3-d]pyrimidin-4-amine], the IC50 was over 10000 nM.

`c1ccc(N2CCc3c(Nc4cccnc4)nc(N4CCOCC4)nc32)cc1` [Compound 77]: the IC50 is 10 to 100 nM.

In the case of `c1ccc(N2CCc3c(N4CCOCC4)nc(N4CCOCC4)nc32)cc1` [Compound 78, 4,4′-(7-phenyl-6,7-dihydro-5H-pyrrolo[2,3-d]pyrimidine-2,4-diyl)dimorpholine], the IC50 lay within 10 to 100 nM.

In the case of `c1cncc(N2CCc3c(N4CCN5CCOCC5C4)nc(N4CCOCC4)nc32)c1` (centres unmarked) [Compound 79, 8-(2-morpholino-7-(pyridin-3-yl)-6,7-dihydro-5H-pyrrolo[2,3-d]pyrimidin-4-yl)octahydropyrazino[2,1-c][1,4]oxazine], the IC50 lay within 1000 to 10000 nM.
